{
  "source": "patent US20240271138A1",
  "about": "“METHODS AND COMPOSITIONS FOR MODULATING STING SIGNALING AND INNATE IMMUNE RESPONSES” (The Broad Institute, Inc., priority 2021, published 2024)",
  "key": {"[1]": {"tested_on": "CD14+ monocytes", "assay": "Immunoblot of phospho-STING in CD14+ monocytes from healthy donors", "type": "cell-based, human", "conditions": "5 μg/mL 2′3′-cGAMP, 6 hours, MLN7243, FIG. 12K", "description": "FIGS. 12A-12O show involvement of ESCRT components in ubiquitination and degradation of STING. […] One representative blot of n=2 independent experiments. […] One representative plot of n=3 technical replicates. […] Each dot represents one technical replicate. Paired t-test, *** p<0.001. […] One representative plot of n=3 independent experiments with n=2 technical replicates per experiment. […] Each dot represents an individual replicate. One-way ANOVA with Dunnet's multiple comparisons. **** p<0.0001, *** p<0.001. […] FIGS. 12G-12J show immunofluorescence in 293T stably expressing STING-HA after stimulation with cGAMP for 2 hours. […] Dashed boxes represent the cropped regions shown in the right panels. One representative field of n≥5 fields in n=2 independent experiments. Scale bar is 10 μm. […] One representative blot of n=3 independent donors in n=2 independent experiments. […] One representative experiment of n=3 independent experiments with n=2 technical replicates. […] Friedman test with Dunn's multiple comparison test. **** p<0.0001, ** p<0.01, ns: not significant.\nCD14+ monocytes were isolated from peripheral adult human blood as previously described 1. […]\nSamples for pull-downs or immunoprecipitations were treated as described in the corresponding paragraphs. […] ECL signal was recorded on a ChemiDoc Biorad Imager. Data was analyzed with ImageLab (Biorad)."}, "[2]": {"tested_on": "STING ubiquitination", "assay": "FLAG-ubiquitin immunoprecipitation of STING in 293T STING-HA / FLAG-ubiquitin cells", "type": "cell-based, human", "conditions": "2′3′-cGAMP, 2 hours; 0.5 μM MLN7243; FIG. 12A", "method": "293T cells were transduced with pTRIP-hPGK-Blast-2A-STING-HA and pTRIP-hPGK-Hygro-2A-FLAG-Ubiquitin and selected with […] Blasticidin (Invivogen) and 320 μg/mL Hygromycin (Invivogen) for one week. 1 million cells/well were plated in a 6 well plate the day prior to the stimulation. Cells were then stimulated with 300 μL cGAMP permeabilization buffer containing 1 μg/mL cGAMP for 10 minutes, washed with 3 mL of warm medium, and the medium was replaced. 3 wells per condition were harvested 2 hours post stimulation, washed with PBS and lysed with 550 μL of RIPA buffer for 10 minutes on ice. Lysates were cleared at 16000 g for 10 minutes at 4° C. 10% of the lysate was saved as input. The remaining lysates were incubated with 150 μL Pierce Anti-[…] Magnetic beads (Thermo Fisher) O/N at 4° C. with constant rotation. Beads were washed 3 times with a buffer containing 10 mM Tris-HCl pH7.5 (Thermo Fisher), 2 mM EDTA (Thermo Fisher), 1% Nonidet-P40 Substitute (Roche) and 50 mM NaCl (Thermo Fisher), and 2 times with RIPA buffer. Proteins were eluted by adding 150 μL of non-reducing Laemmli (Boston bioproducts) containing 20 mM DTT (Thermo Fisher) and boiled for 20 minutes. Input was diluted with 2× sample buffer (Sigma).\nMLN7243 was added again after medium replacement. Cells were stimulated for the indicated times."}, "[3]": {"tested_on": "STING-mNeonGreen", "assay": "STING degradation in 293T STING-mNeonGreen reporter cell line by flow cytometry", "conditions": "293T STING-mNG; 4 μg/mL 2′3′-cGAMP(pS)2; 0.5 μM MLN7243; FIGS. 5A-5B", "quoted_text": "MLN7243 (Selleckchem) was used at 0.5 μM in all experiments. All cell lines were pre-treated for one hour before cGAMP stimulation. […] Cells were stimulated with 300 μL cGAMP permeabilization buffer containing 0.5 μg/mL 2′3′-cGAMP for 10 minutes, washed with 3 mL of medium, and medium was then replaced. MLN7243 was added again after medium replacement. Cells were stimulated for the indicated times.\nCells were then washed twice with Cytoperm and resuspended in FACS buffer for flow cytometry. Acquisition was performed on a Cytoflex S or Cytoflex LX (Beckman Coulter). Data was analyzed with FlowJo (BD)."}},
  "data": [
    {"molecule": "NS(=O)(=O)OC[C@H]1C[C@@H](Nc2ccnc3cc(-c4cccc(SC(F)(F)F)c4)nn23)[C@H](O)[C@@H]1O", "note": "[MLN7243]", "values": [
      {"measurement": "phospho-STING levels", "setting": "[1]", "result": "strong increase in phospho-STING levels"},
      {"measurement": "STING ubiquitination", "setting": "[2]", "result": "blocked STING ubiquitination"},
      {"measurement": "degradation of STING (% STING-mNG positive cells)", "setting": "[3]", "result": "complete block of degradation of STING"}
    ]}
  ]
}
